# Assay results: ChEMBL document CHEMBL1145851, “Novel substituted pyridinyl imidazoles as potent anticytokine agents with low activity against hepatic cytochrome P450 enzymes” (J Med Chem, 2003)
# The source made the active and inactive calls. The rule behind the calls is not given here.
# Assays:
# MAP kinase p38 [1] = target: T1, MAP kinase p38 (Homo sapiens, UniProt O15264+Q15759+Q16539+P53778); test: Inhibitory activity against mitogen-activated protein kinase p38 at 10 e-4 to 10 e-8 M concentration; type: protein assay
# CYP3A4 = CYP3A4 (Homo sapiens, UniProt P08684); test: Inhibition of Cytochrome P450 3A4 at 10 uM; type: ADME
# MAP kinase p38 [2] = target: T1, MAP kinase p38; test: Inhibitory activity against TNF-alpha release in PBM cells; type: functional, cell-based
# CYP2D6 = CYP2D6 (Homo sapiens, UniProt P10635); test: Inhibition of Cytochrome P450 2D6 at 10 uM; type: ADME
# MAP kinase p38 [3] = target: T1, MAP kinase p38; test: Inhibition of p38-related TNF-alpha release by whole blood cells at 10 e-4 to 10 e-8 M; type: functional
# CYP1A2 = target: T2, CYP1A2 (Homo sapiens, UniProt P05177); test: Inhibition of Cytochrome P450 1A2 at 10 uM; type: ADME
# T2 sequence (P05177 whole entry): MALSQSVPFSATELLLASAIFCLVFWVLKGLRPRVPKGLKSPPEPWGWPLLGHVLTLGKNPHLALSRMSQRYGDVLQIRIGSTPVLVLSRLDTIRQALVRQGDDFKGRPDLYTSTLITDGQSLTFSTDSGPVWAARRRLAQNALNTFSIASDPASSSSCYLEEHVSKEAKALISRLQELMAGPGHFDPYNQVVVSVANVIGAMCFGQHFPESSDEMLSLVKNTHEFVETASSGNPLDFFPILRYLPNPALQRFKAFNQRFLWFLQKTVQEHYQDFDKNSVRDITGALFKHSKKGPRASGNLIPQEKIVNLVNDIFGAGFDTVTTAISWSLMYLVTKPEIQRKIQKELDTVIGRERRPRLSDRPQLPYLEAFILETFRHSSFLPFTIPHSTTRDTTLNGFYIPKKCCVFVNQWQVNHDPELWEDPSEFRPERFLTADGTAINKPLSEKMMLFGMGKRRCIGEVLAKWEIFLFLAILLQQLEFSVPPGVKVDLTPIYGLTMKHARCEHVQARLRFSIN
# MAP kinase p38 [4] = target: T1, MAP kinase p38; test: Inhibition of p38-related IL1-beta release by whole blood cells at 10 e-4 to 10 e-8 M; type: functional
# CYP2C19 = CYP2C19 (Homo sapiens, UniProt P33261); test: Inhibition of Cytochrome P450 2C19 at 10 uM; type: ADME
# MAP kinase p38 [5] = target: T1, MAP kinase p38; test: Inhibitory activity against induction of IL-1-beta release in PBMCs; type: functional
# CYP2C9 = CYP2C9 (Homo sapiens, UniProt P11712); test: Inhibition of Cytochrome P450 2C9 at 10 uM; type: ADME
# MAP kinase p38 [6] = target: T1, MAP kinase p38; test: Inhibition of p38-related IL1-beta release by PBMC cells at 10 e-4 to 10 e-8 M (no activity); type: functional, cell-based
# MAP kinase p38 [7] = target: T1, MAP kinase p38; test: Inhibition of p38-related TNF-alpha release by PBMC cells at 10 e-4 to 10 e-8 M (no activity); type: functional, cell-based
# Sequence of CYP3A4 (P08684 whole entry): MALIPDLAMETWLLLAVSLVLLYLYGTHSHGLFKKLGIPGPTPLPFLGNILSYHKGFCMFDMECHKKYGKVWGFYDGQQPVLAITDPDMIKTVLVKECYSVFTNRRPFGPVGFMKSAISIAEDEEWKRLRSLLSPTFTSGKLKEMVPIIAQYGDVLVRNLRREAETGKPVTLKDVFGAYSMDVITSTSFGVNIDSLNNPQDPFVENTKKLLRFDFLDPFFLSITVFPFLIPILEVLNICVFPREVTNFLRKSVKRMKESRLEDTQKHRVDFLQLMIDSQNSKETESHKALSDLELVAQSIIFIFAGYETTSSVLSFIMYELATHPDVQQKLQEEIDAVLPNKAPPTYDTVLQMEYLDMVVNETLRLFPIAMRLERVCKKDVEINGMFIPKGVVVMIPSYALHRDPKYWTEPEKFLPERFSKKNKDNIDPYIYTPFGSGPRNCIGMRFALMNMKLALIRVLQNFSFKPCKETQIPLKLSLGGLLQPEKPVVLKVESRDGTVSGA
# Sequence of CYP2C19 (P33261 whole entry): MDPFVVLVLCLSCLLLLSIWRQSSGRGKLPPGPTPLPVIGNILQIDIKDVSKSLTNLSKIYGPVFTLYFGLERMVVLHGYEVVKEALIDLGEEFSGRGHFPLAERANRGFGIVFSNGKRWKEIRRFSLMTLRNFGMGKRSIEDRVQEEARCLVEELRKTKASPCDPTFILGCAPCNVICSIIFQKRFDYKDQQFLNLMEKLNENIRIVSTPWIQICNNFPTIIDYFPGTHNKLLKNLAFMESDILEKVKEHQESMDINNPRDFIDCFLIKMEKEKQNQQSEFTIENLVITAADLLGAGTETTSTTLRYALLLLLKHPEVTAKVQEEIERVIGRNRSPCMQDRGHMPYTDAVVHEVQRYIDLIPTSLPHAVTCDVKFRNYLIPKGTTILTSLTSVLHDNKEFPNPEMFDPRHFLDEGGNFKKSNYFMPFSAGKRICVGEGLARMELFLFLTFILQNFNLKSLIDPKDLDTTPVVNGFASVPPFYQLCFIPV
# Sequence of CYP2C9 (P11712 whole entry): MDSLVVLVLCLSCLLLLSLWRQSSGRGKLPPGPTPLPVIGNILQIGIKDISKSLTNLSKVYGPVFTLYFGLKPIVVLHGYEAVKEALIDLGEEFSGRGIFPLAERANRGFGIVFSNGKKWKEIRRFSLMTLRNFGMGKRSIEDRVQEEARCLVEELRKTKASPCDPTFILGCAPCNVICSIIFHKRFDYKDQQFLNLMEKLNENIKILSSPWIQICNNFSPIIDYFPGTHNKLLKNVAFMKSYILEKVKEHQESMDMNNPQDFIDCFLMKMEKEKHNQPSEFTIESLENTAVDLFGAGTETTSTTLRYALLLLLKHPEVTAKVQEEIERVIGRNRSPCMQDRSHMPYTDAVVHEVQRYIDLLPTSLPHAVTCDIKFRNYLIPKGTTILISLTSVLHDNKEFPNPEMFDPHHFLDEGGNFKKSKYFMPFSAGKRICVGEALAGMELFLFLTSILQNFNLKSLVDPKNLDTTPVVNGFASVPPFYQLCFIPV
# Sequence of CYP2D6 (P10635 whole entry): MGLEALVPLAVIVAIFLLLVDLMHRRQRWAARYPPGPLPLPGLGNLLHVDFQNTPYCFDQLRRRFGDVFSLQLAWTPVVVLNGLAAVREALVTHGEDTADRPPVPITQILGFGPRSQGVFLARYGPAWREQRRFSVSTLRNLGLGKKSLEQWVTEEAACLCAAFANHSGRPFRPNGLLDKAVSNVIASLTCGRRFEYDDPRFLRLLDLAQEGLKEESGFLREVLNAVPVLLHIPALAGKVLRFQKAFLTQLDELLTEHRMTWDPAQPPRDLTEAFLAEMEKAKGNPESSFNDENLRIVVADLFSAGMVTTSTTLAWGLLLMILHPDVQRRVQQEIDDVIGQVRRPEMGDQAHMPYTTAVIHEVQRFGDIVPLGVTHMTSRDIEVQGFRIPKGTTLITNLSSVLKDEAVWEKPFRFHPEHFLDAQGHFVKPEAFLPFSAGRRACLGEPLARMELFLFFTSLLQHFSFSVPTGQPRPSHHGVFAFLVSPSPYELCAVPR
SMILES,IC50 (MAP kinase p38 [1]) [nM],IC50 (MAP kinase p38 [2]) [nM],IC50 (MAP kinase p38 [5]) [nM],other results
CSc1nc(-c2ccc(F)cc2)c(-c2ccnc(NC(C)=O)c2)n1C,500,1100,75,inhibition at 10 µM (CYP3A4): 16.5%; inhibition at 10 µM (CYP2D6): 13.4%; IC50 (MAP kinase p38 [3]): 12500 nM; inhibition at 10 µM (CYP1A2): 32.4%; IC50 (MAP kinase p38 [4]): 10800 nM; inhibition at 10 µM (CYP2C19): 20.3%; inhibition at 10 µM (CYP2C9): 27.6%
Fc1ccc(-c2nc(SCc3ccccc3)[nH]c2-c2ccnc(Cl)c2)cc1,,60000,1800,
C[S+]([O-])c1ccc(CSc2nc(-c3ccc(F)cc3)c(-c3ccnc(F)c3)[nH]2)cc1 (stereo unspecified),9300,6900,2450,
CSc1nc(-c2ccc(F)cc2)c(-c2ccnc(NC(C)=O)c2)n1C1CC(C)(C)NC(C)(C)C1,340,4500,460,inhibition at 10 µM (CYP3A4): 79%; inhibition at 10 µM (CYP2D6): 14.6%; IC50 (MAP kinase p38 [3]): 5400 nM; inhibition at 10 µM (CYP1A2): < 0%; IC50 (MAP kinase p38 [4]): 2150 nM; inhibition at 10 µM (CYP2C19): 7.6%; inhibition at 10 µM (CYP2C9): 2.6%
CSc1nc(-c2ccc(F)cc2)c(-c2ccnc(O)c2)[nH]1,,3100,500,
COc1ccc(C(=O)Nc2cc(-c3c(-c4ccc(F)cc4)nc(SC)n3C)ccn2)cc1,,640,440,
CSc1nc(-c2ccnc(O)c2)c(-c2ccc(F)cc2)n1C,,31300,7200,
CSc1nc(-c2ccc(F)cc2)c(-c2ccnc(NCCc3ccccc3)c2)[nH]1,240,350,31,
COc1ccc(CNc2cc(-c3[nH]c(SCc4ccccc4)nc3-c3ccc(F)cc3)ccn2)cc1,,21000,180,
CC(Nc1cc(-c2[nH]c(SCc3ccccc3)nc2-c2ccc(F)cc2)ccn1)c1ccccc1 (stereo unspecified),380,2700,45,
CSc1nc(-c2ccc(F)cc2)c(-c2ccnc(Nc3ccccc3)c2)[nH]1,130,340,30,
CSc1nc(-c2ccc(F)cc2)c(-c2ccnc(NCc3ccccc3)c2)[nH]1,650,630,108,
COc1cc(-c2[nH]c(SC)nc2-c2ccc(F)cc2)ccn1,,1900,150,
CSc1nc(-c2ccc(F)cc2)c(-c2ccnc(NC(C)c3ccccc3)c2)[nH]1 (stereo unspecified),,,,inhibition at 10 µM (CYP3A4): 79.2%; inhibition at 10 µM (CYP2D6): 31.1%; inhibition at 10 µM (CYP1A2): 66.7%; inhibition at 10 µM (CYP2C19): 83.5%; inhibition at 10 µM (CYP2C9): 79%
CCNc1cc(-c2c(-c3ccc(F)cc3)nc(SC)n2C2CC(C)(C)NC(C)(C)C2)ccn1,220,2900,620,IC50 (MAP kinase p38 [3]): 11000 nM; IC50 (MAP kinase p38 [4]): 2700 nM
CSc1nc(-c2ccc(F)cc2)c(-c2ccnc(N(Cc3ccccc3)Cc3ccccc3)c2)n1C,,,,NA (MAP kinase p38 [6]): inactive; NA (MAP kinase p38 [7]): inactive
CSc1nc(-c2ccc(F)cc2)c(-c2ccnc(NCc3ccc(Cl)cc3)c2)[nH]1,950,500,150,
CCCn1c(SC)nc(-c2ccc(F)cc2)c1-c1ccnc(NC(C)=O)c1,,490,120,
CC(Nc1cc(-c2[nH]c(SCc3ccc([S+](C)[O-])cc3)nc2-c2ccc(F)cc2)ccn1)c1ccccc1 (stereo unspecified),270,910,40,
CCCn1c(SC)nc(-c2ccc(F)cc2)c1-c1ccncc1,2200,1300,360,
CSc1nc(-c2ccc(F)cc2)c(-c2ccnc(NCc3ccc(C)cc3)c2)[nH]1,830,670,85,
CSc1nc(-c2ccc(F)cc2)c(-c2ccncc2)n1C1CC(C)(C)NC(C)(C)C1,17000,16000,850,inhibition at 10 µM (CYP3A4): 49.6%; inhibition at 10 µM (CYP2D6): 19.1%; IC50 (MAP kinase p38 [3]): 19100 nM; inhibition at 10 µM (CYP1A2): 9%; IC50 (MAP kinase p38 [4]): 18500 nM; inhibition at 10 µM (CYP2C19): 15.3%; inhibition at 10 µM (CYP2C9): 7.9%

SMILES,IC50 (MAP kinase p38 [1]) [nM],IC50 (MAP kinase p38 [2]) [nM],IC50 (MAP kinase p38 [5]) [nM],other results
CSc1nc(-c2ccnc(NC(C)c3ccccc3)c2)c(-c2ccc(F)cc2)n1C (stereo unspecified),27000,,,
Fc1ccc(-c2[nH]c(SCc3ccccc3)nc2-c2ccnc(NCc3ccccc3)c2)cc1,1420,3200,200,
CCCn1c(SC)nc(-c2ccc(F)cc2)c1-c1ccnc(N)c1,,5400,500,
CSc1nc(-c2ccc(F)cc2)c(-c2ccnc(NCc3ccc(Cl)c(Cl)c3)c2)[nH]1,700,720,230,
C[S+]([O-])c1ccc(CSc2nc(-c3ccc(F)cc3)c(-c3ccnc(NCc4ccccc4)c3)[nH]2)cc1 (stereo unspecified),1450,2000,470,
CCCn1c(SC)nc(-c2ccc(F)cc2)c1-c1ccnc(NCC)c1,,430,150,
C[S+]([O-])c1ccc(-c2nc(-c3ccncc3)c(-c3ccc(F)cc3)[nH]2)cc1 (stereo unspecified) [SB-203580],,,,inhibition at 10 µM (CYP3A4): 61%; inhibition at 10 µM (CYP2D6): 67%; inhibition at 10 µM (CYP1A2): 61%; inhibition at 10 µM (CYP2C19): 85%; inhibition at 10 µM (CYP2C9): 75%
CSc1nc(-c2ccc(F)cc2)c(-c2ccnc(Cl)c2)[nH]1,,2200,350,inhibition at 10 µM (CYP3A4): 48.8%; inhibition at 10 µM (CYP2D6): 18.6%; inhibition at 10 µM (CYP1A2): 92.6%; inhibition at 10 µM (CYP2C19): 41.4%; inhibition at 10 µM (CYP2C9): 65%
Fc1ccc(-c2nc(SCc3ccccc3)[nH]c2-c2ccnc(F)c2)cc1,4200,40500,2900,
CSc1nc(-c2ccc(F)cc2)c(-c2ccnc(N)c2)n1C,2300,3200,270,
C[S+]([O-])c1ccc(CSc2nc(-c3ccc(F)cc3)c(-c3ccncc3)[nH]2)cc1 (stereo unspecified),,1100,380,inhibition at 10 µM (CYP3A4): 87.1%; inhibition at 10 µM (CYP2D6): 71.8%; inhibition at 10 µM (CYP1A2): 8.4%; inhibition at 10 µM (CYP2C19): 73.6%; inhibition at 10 µM (CYP2C9): 72.7%
CSc1nc(-c2ccc(F)cc2)c(-c2ccncc2)n1C,2200,2200,450,IC50 (MAP kinase p38 [3]): 5100 nM; IC50 (MAP kinase p38 [4]): 1080 nM
CSc1nc(-c2ccc(F)cc2)c(-c2ccnc(F)c2)[nH]1,3800,2800,300,
CSc1nc(-c2ccc(F)cc2)c(-c2ccnc(OC(C)C)c2)[nH]1,560,400,47,inhibition at 10 µM (CYP3A4): 49.6%; inhibition at 10 µM (CYP2D6): < 0%; IC50 (MAP kinase p38 [3]): 7200 nM; inhibition at 10 µM (CYP1A2): 83.2%; IC50 (MAP kinase p38 [4]): 2200 nM; inhibition at 10 µM (CYP2C19): 62.6%; inhibition at 10 µM (CYP2C9): 67.5%
CSc1nc(-c2ccc(F)cc2)c(-c2ccnc(NCc3ccccc3)c2)n1C,930,580,82,
COc1ccc(CNc2cc(-c3[nH]c(SC)nc3-c3ccc(F)cc3)ccn2)cc1,790,640,56,
CSc1nc(-c2ccc(F)cc2)c(-c2ccnc(N(C)Cc3ccccc3)c2)[nH]1,8700,4600,2700,
C[S+]([O-])c1ccc(CSc2nc(-c3ccc(F)cc3)c(-c3ccnc(Cl)c3)[nH]2)cc1 (stereo unspecified),,12000,2100,
CCNc1cc(-c2c(-c3ccc(F)cc3)nc(SC)n2C)ccn1,700,600,71,IC50 (MAP kinase p38 [3]): 5000 nM; IC50 (MAP kinase p38 [4]): 2000 nM
CSc1nc(-c2ccc(F)cc2)c(-c2ccnc(NC(C)c3ccccc3)c2)n1C (stereo unspecified),220,110,15,inhibition at 10 µM (CYP3A4): 85.8%; inhibition at 10 µM (CYP2D6): 12.4%; IC50 (MAP kinase p38 [3]): 3000 nM; inhibition at 10 µM (CYP1A2): 57.1%; IC50 (MAP kinase p38 [4]): 4100 nM; inhibition at 10 µM (CYP2C19): 90.9%; inhibition at 10 µM (CYP2C9): 83.3%
CSc1nc(-c2ccc(F)cc2)c(-c2ccncc2)[nH]1,630,900,44,inhibition at 10 µM (CYP3A4): 81.4%; inhibition at 10 µM (CYP2D6): 39.8%; IC50 (MAP kinase p38 [3]): 4200 nM; inhibition at 10 µM (CYP1A2): 43.5%; IC50 (MAP kinase p38 [4]): 1200 nM; inhibition at 10 µM (CYP2C19): 79.5%; inhibition at 10 µM (CYP2C9): 72.4%
